Data: ChEMBL document CHEMBL1914379, “Challenges of drug discovery in novel target space. The discovery and evaluation of PF-3893787: a novel histamine H4 receptor antagonist” (Bioorg Med Chem Lett, 2011)
Each block holds one compound with its values, some of them ahead of it. Activity calls are given as the source filed them. The rule behind the calls is not given here.

Experiments:
[1] = Metabolic stability in human liver microsomes; format: ADME, Microsome; settings: read-out: Stability
[2] = Metabolic stability in rat liver microsomes; format: ADME, Microsome; settings: read-out: Stability
Histamine H4 receptor [3] = molecular target: T1, Histamine H4 receptor (Homo sapiens, UniProt Q9H3N8); experiment: Displacement of [3H]-histamine from full length human H4R expressed in HEK293 cells; format: cell-based
Histamine H4 receptor [4] = molecular target: T1, Histamine H4 receptor; experiment: Antagonist activity at full length human H4R expressed in HEK293 cells assessed as reversal of forskolin-induced cAMP production by CRE-beta-lactamase reporter gene assay; format: functional, cell-based
[5] = Clearance in rat at 1 mg/kg, iv and 1 mg/kg, po; format: ADME, organism-based; settings: in vivo
[6] = Volume of distribution in rat at 1 mg/kg, iv and 1 mg/kg, po; format: ADME, organism-based; settings: in vivo
[7] = Half life in rat at 1 mg/kg, iv and 1 mg/kg, po; format: ADME, organism-based; settings: in vivo
[8] = Oral bioavailability in rat at 1 mg/kg; format: ADME, organism-based; settings: in vivo
Rattus norvegicus [9] = experiment: Toxicity in po dosed rat assessed as lymphoid depletion from spleen for 4 days; format: organism-based; settings: in vivo, 96 h
Rattus norvegicus [10] = experiment: Toxicity in po dosed rat assessed as lymphoid depletion from thymus for 4 days; format: organism-based; settings: in vivo, 96 h
Rattus norvegicus [11] = experiment: Toxicity in po dosed rat assessed as lymphoid depletion from gut for 4 days; format: organism-based; settings: in vivo, 96 h
Rattus norvegicus [12] = experiment: Toxicity in po dosed rat assessed as decrease in reticulocyte counts for 4 days; format: organism-based; settings: in vivo, 96 h
Rattus norvegicus [13] = experiment: Toxicity in po dosed rat assessed as decrease in erythropoiesis for 4 days; format: organism-based, Erythrocyte; settings: in vivo, 96 h
Rattus norvegicus [14] = experiment: Induction of pro-inflammatory response in rat dosed orally for 4 days; format: functional, organism-based
Liver microsomes = experiment: Metabolic stability in human liver microsomes assessed as reactive metabolite generation; format: ADME, Microsome
HEK-293T [15] = experiment: Inverse agonist activity at macaque H4R expressed in HEK293T cells assessed as reversal of forskolin-induced cAMP production by CRE-beta-lactamase reporter gene assay; format: functional, cell-based; settings: Macaca mulatta
HEK-293T [16] = experiment: Antagonist activity at dog H4R expressed in HEK293T cells assessed as reversal of forskolin-induced cAMP production by CRE-beta-lactamase reporter gene assay; format: functional, cell-based; settings: Canis lupus familiaris
[17] = molecular target: Histamine H4 receptor (Rattus norvegicus) (UniProt Q91ZY1); experiment: Partial agonist activity at rat H4R expressed in HEK293T cells assessed as reversal of forskolin-induced cAMP production by CRE-beta-lactamase reporter gene assay; format: functional, cell-based; settings: HEK-293T
[18] = Lipophilicity, log D of the compound; format: physicochemical; settings: octanol/water
[19] = Blood clearance in dog at 1 mg/kg, iv and 10 mg/kg, po; format: ADME, organism-based, Canis lupus familiaris
[20] = Volume of distribution in dog blood at 1 mg/kg, iv and 10 mg/kg, po; format: ADME, organism-based, Canis lupus familiaris
[21] = Half life in dog at 1 mg/kg, iv and 10 mg/kg, po; format: ADME, organism-based, Canis lupus familiaris; settings: in vivo
[22] = Oral bioavailability in dog at 10 mg/kg; format: ADME, organism-based, Canis lupus familiaris; settings: in vivo
[23] = Blood clearance in rat at 1 mg/kg, iv and 5 mg/kg, po; format: ADME, organism-based
[24] = Volume of distribution in rat blood at 1 mg/kg, iv and 5 mg/kg, po; format: ADME, organism-based
[25] = Half life in rat at 1 mg/kg, iv and 5 mg/kg, po; format: ADME, organism-based; settings: in vivo
[26] = Oral bioavailability in rat at 5 mg/kg; format: ADME, organism-based; settings: in vivo
[27] = Plasma protein binding in rat at 1 mg/kg, iv and 5 mg/kg, po; format: ADME, organism-based; settings: read-out: PPB (converted)
Plasma = experiment: Plasma protein binding in dog at 1 mg/kg, iv and 10 mg/kg, po; format: ADME, organism-based, Canis lupus familiaris; settings: in vivo
[28] = Plasma protein binding in human; format: ADME, cell-free; settings: read-out: PPB (converted)
[29] = Ratio of drug level in blood to plasma in rat at 1 mg/kg, iv and 5 mg/kg, po; format: ADME, organism-based
[30] = Ratio of drug level in blood to plasma in dog at 1 mg/kg, iv and 10 mg/kg, po; format: ADME, organism-based, Canis lupus familiaris
[31] = Ratio of drug level in blood to plasma in human; format: ADME; settings: blood and plasma
Histamine H4 receptor [32] = molecular target: T1, Histamine H4 receptor; experiment: Antagonist activity at H4R in human eosinophils assessed as inhibition of histamine-induced CD11b upregulation; format: functional
Histamine H4 receptor [33] = molecular target: T1, Histamine H4 receptor; experiment: Antagonist activity at H4R in human eosinophils assessed as inhibition of histamine-induced actin polymerisation; format: functional
Histamine H4 receptor [34] = molecular target: T1, Histamine H4 receptor; experiment: Displacement of [3H]-histamine from human H4R expressed in HEK293T cells; format: cell-based, HEK-293T
[35] = Displacement of [3H]-histamine from macaque H4R expressed in HEK293T cells; format: cell-based, Macaca mulatta; settings: hek-293t
[36] = Displacement of [3H]-histamine from dog H4R expressed in HEK293T cells; format: cell-based, Canis lupus familiaris; settings: hek-293t
Histamine H4 receptor [37] = molecular target: T2, Histamine H4 receptor (Cavia porcellus, UniProt Q91ZY3); experiment: Displacement of [3H]-histamine from guinea pig H4R expressed in HEK293T cells; format: cell-based, HEK-293T
T2 sequence (Q91ZY3 whole entry): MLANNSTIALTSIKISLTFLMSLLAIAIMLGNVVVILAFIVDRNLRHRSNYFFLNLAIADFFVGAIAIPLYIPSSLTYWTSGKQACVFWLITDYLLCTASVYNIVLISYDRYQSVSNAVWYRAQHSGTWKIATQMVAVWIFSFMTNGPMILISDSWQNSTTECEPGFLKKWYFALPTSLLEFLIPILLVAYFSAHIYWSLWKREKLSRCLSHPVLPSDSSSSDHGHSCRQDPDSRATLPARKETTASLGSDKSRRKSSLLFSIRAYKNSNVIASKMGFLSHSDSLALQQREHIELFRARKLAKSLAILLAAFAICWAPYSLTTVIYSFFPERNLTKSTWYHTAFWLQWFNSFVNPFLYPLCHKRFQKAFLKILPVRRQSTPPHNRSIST

Histamine H4 receptor [38] = molecular target: Histamine H4 receptor (Rattus norvegicus, UniProt Q91ZY1); experiment: Displacement of [3H]-histamine from rat H4R expressed in HEK293T cells; format: cell-based, HEK-293T
Histamine H4 receptor [39] = molecular target: T3, Histamine H4 receptor (Mus musculus, UniProt Q91ZY2); experiment: Displacement of [3H]-histamine from mouse H4R expressed in HEK293T cells; format: cell-based, HEK-293T
T3 sequence (Q91ZY2 whole entry): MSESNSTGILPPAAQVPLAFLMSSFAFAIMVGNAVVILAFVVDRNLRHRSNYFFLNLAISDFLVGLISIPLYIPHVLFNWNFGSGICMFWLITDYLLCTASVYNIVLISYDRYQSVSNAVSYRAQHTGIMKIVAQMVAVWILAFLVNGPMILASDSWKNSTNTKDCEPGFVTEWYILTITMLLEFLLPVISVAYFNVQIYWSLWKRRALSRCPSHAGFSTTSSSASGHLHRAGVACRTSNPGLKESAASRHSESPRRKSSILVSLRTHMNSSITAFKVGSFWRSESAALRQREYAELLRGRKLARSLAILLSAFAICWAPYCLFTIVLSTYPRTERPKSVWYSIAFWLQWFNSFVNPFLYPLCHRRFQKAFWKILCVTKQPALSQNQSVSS

Rattus norvegicus [40] = experiment: Toxicity in rat assessed as vacuolation at high dose, po for 7 days; format: organism-based; settings: in vivo, 168 h
Canis familiaris = experiment: Toxicity in dog assessed as adverse events dosed orally for 7 days; format: organism-based, Canis lupus familiaris; settings: in vivo, po, 168 h
[41] = Blood clearance in dog at 3 mg/kg, iv; format: ADME, organism-based, Canis lupus familiaris; parameters: dose 3 mg/kg, route intravenous
[42] = Volume of distribution in dog blood at 3 mg/kg, iv; format: ADME, organism-based, Canis lupus familiaris; parameters: dose 3 mg/kg, route intravenous
[43] = Half life in dog at 3 mg/kg, iv; format: ADME, organism-based, Canis lupus familiaris; parameters: dose 3 mg/kg, route intravenous; settings: in vivo
[44] = Blood clearance in rat at 1 mg/kg, iv and 1 mg/kg, po; format: ADME, organism-based
[45] = Volume of distribution in rat blood at 1 mg/kg, iv and 1 mg/kg, po; format: ADME, organism-based
Rattus norvegicus [46] = experiment: Toxicity in rat assessed as bone marrow cytology changes at high dose, po for 7 days; format: organism-based; settings: in vivo, 168 h

Histamine H4 receptor (Rattus norvegicus, UniProt Q91ZY1), sequence (Q91ZY1 whole entry): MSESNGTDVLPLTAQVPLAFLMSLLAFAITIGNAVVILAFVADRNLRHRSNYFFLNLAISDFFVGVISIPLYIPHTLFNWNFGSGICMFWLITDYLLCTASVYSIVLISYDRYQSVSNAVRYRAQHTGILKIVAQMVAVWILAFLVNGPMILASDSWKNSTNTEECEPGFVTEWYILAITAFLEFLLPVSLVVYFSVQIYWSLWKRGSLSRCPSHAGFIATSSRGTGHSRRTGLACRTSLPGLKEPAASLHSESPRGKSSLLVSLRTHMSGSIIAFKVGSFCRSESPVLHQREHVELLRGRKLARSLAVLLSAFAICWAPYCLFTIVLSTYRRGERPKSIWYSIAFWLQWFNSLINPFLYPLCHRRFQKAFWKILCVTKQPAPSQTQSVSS
Histamine H4 receptor (Rattus norvegicus), sequence (Q91ZY1 whole entry): as above

SMILES: CN[C@@H]1CCN(c2cc(NCC3CC3)nc(N)n2)C1 [ADRIFORANT]
- Activity (HEK-293T [15]): Active
- Activity (HEK-293T [16]): Active
- Activity [17]: Active
- microsomal CLint [1]: < 7 µL/min/mg
- microsomal CLint [2]: < 8.5 µL/min/mg
- Ki (Histamine H4 receptor [3]): 2.4 nM
- Ki (Histamine H4 receptor [4]): 1.56 nM
- logD [18]: -0.1
- clearance [19]: 0.42 L/h/kg
- Vd [20]: 14 L/kg
- half-life [21]: 24 h
- bioavailability [22]: 39%
- clearance [23]: 1.74 L/h/kg
- Vd [24]: 18 L/kg
- half-life [25]: 7 h
- bioavailability [26]: 62%
- fraction unbound [27]: 0.81
- PPB (Plasma): 0%
- fraction unbound [28]: 0.84
- blood plasma ratio [29]: 2
- blood plasma ratio [30]: 1
- blood plasma ratio [31]: 3
- IC50 (Histamine H4 receptor [32]): 4.9 nM
- IC50 (Histamine H4 receptor [33]): 1.3 nM
- Ki (Histamine H4 receptor [34]): 6.17 nM
- pKi [35]: 7.81
- pKi [36]: 5.79
- Ki (Histamine H4 receptor [37]): 123 nM
- Ki (Histamine H4 receptor [38]): 12.3 nM
- Ki (Histamine H4 receptor [39]): 20.9 nM

SMILES: CNC1CN(c2cc(NCC(C)(C)C)nc(N)n2)C1
- Activity (Rattus norvegicus [40]): Toxic
- microsomal CLint [1]: < 7 µL/min/mg
- microsomal CLint [2]: < 8.5 µL/min/mg
- Activity (Canis familiaris): Non-toxic
- Ki (Histamine H4 receptor [3]): 1.7 nM
- Ki (Histamine H4 receptor [4]): 0.034 nM
- logD [18]: 0.7
- half-life [7]: 6.9 h
- bioavailability [8]: 57%
- Activity (Rattus norvegicus [9]): Non-toxic
- Activity (Rattus norvegicus [10]): Non-toxic
- Activity (Rattus norvegicus [11]): Non-toxic
- Activity (Rattus norvegicus [12]): Non-toxic
- Activity (Rattus norvegicus [13]): Non-toxic
- clearance [41]: 1.8 L/h/kg
- Vd [42]: 48 L/kg
- half-life [43]: 19 h
- clearance [44]: 4.62 L/h/kg
- Vd [45]: 49 L/kg

Further lines, with some results ahead:

- microsomal CLint [1]: < 7 µL/min/mg
- microsomal CLint [2]: 10 µL/min/mg
- Ki (Histamine H4 receptor [3]): 10 nM
- Ki (Histamine H4 receptor [4]): 10 nM
- clearance [5]: 1.86 L/h/kg
- Vd [6]: 31 L/kg
- half-life [7]: 12 h
- bioavailability [8]: 20%
SMILES: CN1C[C@@H]2CN(C(=N)c3nc4cc(F)c(F)cc4[nH]3)C[C@@H]2C1
- Activity (Rattus norvegicus [9]): Dose-dependent effect
- Activity (Rattus norvegicus [10]): Dose-dependent effect
- Activity (Rattus norvegicus [11]): Dose-dependent effect
- Activity (Rattus norvegicus [12]): Toxic
- Activity (Rattus norvegicus [13]): Toxic
- Activity (Rattus norvegicus [14]): Active

- microsomal CLint [1]: < 7 µL/min/mg
- microsomal CLint [2]: 40 µL/min/mg
- Ki (Histamine H4 receptor [3]): 83 nM
- Ki (Histamine H4 receptor [4]): 39 nM
- Stability (Liver microsomes): Stable
SMILES: CN1C[C@@H]2CN(C(=O)c3nc4cc(F)ccc4[nH]3)C[C@@H]2C1

- microsomal CLint [1]: 7 µL/min/mg
- microsomal CLint [2]: 36 µL/min/mg
- Ki (Histamine H4 receptor [4]): 27 nM
- Stability (Liver microsomes): Unstable
SMILES: CN1C[C@@H]2CN(C(=O)c3cc4cc(Cl)ccc4[nH]3)C[C@@H]2C1

- microsomal CLint [2]: < 8.5 µL/min/mg
- Ki (Histamine H4 receptor [3]): 18 nM
- Ki (Histamine H4 receptor [4]): 13 nM
SMILES: CNC1CN(c2cc(NCc3cccc(F)c3)nc(N)n2)C1
- Activity (Rattus norvegicus [40]): Toxic
- Activity (Rattus norvegicus [46]): Toxic
